Data taken from US20240158370A1, “CK1 alpha AND DUAL CK1 alpha / GSPT1 DEGRADING COMPOUNDS” (Innovo Therapeutics, Inc., priority 2022, published 2024).

Tests used:
[1] = molecular target: T1, CK1α (Homo sapiens, UniProt P48729+Q96SW2); test: HiBiT degradation assay, CK1α, Procedure A; assay type: cell-based; settings: six hours
T1 construct: CSNK1A1-HiBit KI HEK293(LgBit) Cells; host or cells: HEK293(LgBit) knock-in cells
In short: (§1)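 Luminescence from HiBiT lytic detection reports remaining tagged protein after cells sit six hours at 37° C with compound across ten concentrations (10 μM down to 0.005 μM, 0.1% DMSO). A 4-parameter curve fit gives DC50 and Ymin.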

[2] = molecular target: GSPT1 (Homo sapiens, UniProt P15170+Q96SW2); test: HiBiT degradation assay, GSPT1, Procedure A; assay type: cell-based; set-up: HiBit-GSPT1 KI HEK293(LgBit) Cells; host or cells: HEK293(LgBit) knock-in cells; settings: six hours
In short: as §1

T1 sequence (P48729 whole entry): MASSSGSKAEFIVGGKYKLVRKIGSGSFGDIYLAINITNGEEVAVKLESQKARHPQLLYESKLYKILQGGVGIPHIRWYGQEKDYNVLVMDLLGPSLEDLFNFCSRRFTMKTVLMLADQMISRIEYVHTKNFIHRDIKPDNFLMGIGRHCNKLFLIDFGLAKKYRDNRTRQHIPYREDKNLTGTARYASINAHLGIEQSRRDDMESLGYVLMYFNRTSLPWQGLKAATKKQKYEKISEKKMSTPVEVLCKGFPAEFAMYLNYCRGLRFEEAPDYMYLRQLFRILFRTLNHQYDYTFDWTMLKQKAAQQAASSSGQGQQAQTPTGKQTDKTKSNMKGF
T1 sequence (Q96SW2 whole entry): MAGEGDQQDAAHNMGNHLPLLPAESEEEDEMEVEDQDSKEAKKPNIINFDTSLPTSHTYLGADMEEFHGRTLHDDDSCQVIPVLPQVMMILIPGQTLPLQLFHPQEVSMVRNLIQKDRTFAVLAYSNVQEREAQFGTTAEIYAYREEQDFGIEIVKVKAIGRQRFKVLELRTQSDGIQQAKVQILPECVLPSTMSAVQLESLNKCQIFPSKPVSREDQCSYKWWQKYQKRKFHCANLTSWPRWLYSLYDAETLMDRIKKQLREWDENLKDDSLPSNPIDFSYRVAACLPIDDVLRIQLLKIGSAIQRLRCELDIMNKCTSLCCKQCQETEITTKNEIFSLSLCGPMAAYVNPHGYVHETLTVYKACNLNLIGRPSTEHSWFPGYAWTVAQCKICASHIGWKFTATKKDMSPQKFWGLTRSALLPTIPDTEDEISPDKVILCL
T1 sequence (Q16531 whole entry partner): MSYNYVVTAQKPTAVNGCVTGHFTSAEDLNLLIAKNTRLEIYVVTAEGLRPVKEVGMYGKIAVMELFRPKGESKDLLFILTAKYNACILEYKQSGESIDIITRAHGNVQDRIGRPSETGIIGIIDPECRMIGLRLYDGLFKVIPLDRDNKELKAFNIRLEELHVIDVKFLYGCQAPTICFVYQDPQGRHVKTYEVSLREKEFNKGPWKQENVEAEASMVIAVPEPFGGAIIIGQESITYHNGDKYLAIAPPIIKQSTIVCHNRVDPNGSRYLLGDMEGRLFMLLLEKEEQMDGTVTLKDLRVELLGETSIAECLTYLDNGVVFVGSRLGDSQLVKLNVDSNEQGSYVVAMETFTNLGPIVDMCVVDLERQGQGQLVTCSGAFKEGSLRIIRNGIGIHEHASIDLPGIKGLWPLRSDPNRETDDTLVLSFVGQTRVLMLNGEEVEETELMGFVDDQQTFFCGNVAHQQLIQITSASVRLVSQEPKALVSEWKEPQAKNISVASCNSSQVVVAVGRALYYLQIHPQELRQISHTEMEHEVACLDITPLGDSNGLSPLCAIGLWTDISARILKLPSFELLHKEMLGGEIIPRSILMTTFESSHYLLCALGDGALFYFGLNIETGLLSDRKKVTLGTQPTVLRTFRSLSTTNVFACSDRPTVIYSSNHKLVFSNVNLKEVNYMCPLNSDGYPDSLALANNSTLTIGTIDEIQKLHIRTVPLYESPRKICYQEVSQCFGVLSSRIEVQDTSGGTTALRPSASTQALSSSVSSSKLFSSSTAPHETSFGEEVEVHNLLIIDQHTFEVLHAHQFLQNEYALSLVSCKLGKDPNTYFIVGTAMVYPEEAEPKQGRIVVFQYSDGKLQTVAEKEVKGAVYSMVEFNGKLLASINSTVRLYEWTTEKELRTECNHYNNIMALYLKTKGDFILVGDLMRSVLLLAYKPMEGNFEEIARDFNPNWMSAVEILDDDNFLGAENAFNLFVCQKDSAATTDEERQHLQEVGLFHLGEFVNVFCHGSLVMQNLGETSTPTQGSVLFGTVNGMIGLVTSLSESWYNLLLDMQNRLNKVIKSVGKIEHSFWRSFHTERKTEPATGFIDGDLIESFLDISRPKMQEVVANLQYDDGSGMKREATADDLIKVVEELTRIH
Chain of GSPT1 (P15170 whole entry): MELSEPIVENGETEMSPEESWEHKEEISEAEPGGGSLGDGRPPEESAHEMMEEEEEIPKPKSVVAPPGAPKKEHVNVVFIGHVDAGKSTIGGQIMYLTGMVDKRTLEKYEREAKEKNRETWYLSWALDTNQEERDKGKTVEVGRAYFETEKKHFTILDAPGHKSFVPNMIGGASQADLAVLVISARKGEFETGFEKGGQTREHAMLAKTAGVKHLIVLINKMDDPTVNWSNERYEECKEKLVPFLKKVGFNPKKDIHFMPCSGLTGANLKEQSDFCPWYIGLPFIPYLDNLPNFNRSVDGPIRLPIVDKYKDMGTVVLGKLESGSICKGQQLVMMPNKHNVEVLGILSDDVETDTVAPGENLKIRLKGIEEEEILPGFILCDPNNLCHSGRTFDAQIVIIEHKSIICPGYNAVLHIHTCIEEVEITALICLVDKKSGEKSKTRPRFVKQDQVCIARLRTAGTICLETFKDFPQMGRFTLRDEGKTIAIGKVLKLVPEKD
Chain of GSPT1 (Q96SW2 whole entry): as the sequence (Q96SW2 whole entry) above
Chain of GSPT1 (Q16531 whole entry partner): as the sequence (Q16531 whole entry partner) above

| SMILES | CK1α Ymin [1] | DC50 [1] | DC50 [2] | GSPT1 Ymin [2] |
| --- | --- | --- | --- | --- |
| CC(C)n1cc(-c2ccc3c(c2)CN(C2CCC(=O)NC2=O)C3=O)nc1-c1ccccc1 (stereo not drawn) [Example 549, 3-(5-(1-isopropyl-2-phenyl-1H-imidazol-4-yl)-1-oxoisoindolin-2-yl)piperidine-2,6-dione] | C (C = 0-10% remaining) | < 0.025 µM | ≥ 0.025 µM | F (F = >75-100% remaining) |
| O=C1CCC(N2Cc3cc(-n4ccc(-c5ccccc5)n4)ccc3C2=O)C(=O)N1 (stereo not drawn) [Example 551, 3-(1-oxo-5-(3-phenyl-1H-pyrazol-1-yl)isoindolin-2-yl)piperidine-2,6-dione] | E (E = >25-75% remaining) | < 0.025 µM | ≥ 0.025 µM | F (F = >75-100% remaining) |
| O=C1CCC(N2Cc3cc(-n4cnc(-c5ccccc5)c4)ccc3C2=O)C(=O)N1 (stereo not drawn) [Example 552, 3-(1-oxo-5-(4-phenyl-1H-imidazol-1-yl)isoindolin-2-yl)piperidine-2,6-dione] | E (E = >25-75% remaining) | ≥ 0.025 µM | ≥ 0.025 µM | F (F = >75-100% remaining) |
| Cn1nc(-c2ccc3c(c2)CN(C2CCC(=O)NC2=O)C3=O)nc1N1CCCCC1 (stereo not drawn) [Example 554, 3-(5-(1-methyl-5-(piperidin-1-yl)-1H-1,2,4-triazol-3-yl)-1-oxoisoindolin-2-yl) piperidine-2,6-dione] | D (D = >10- 25% remaining) | < 0.025 µM | ≥ 0.025 µM | F (F = >75-100% remaining) |
| Cn1cc(-c2ccc3c(c2)CN(C2CCC(=O)NC2=O)C3=O)nc1-c1cc(F)cc(F)c1 (stereo not drawn) [Example 555] | C (C = 0-10% remaining) | < 0.025 µM | ≥ 0.025 µM | F (F = >75-100% remaining) |
| Cn1cc(-c2ccc3c(c2)CN(C2CCC(=O)NC2=O)C3=O)nc1-c1ccc(F)cc1 (stereo not drawn) [Example 556] | C (C = 0-10% remaining) | < 0.025 µM | ≥ 0.025 µM | F (F = >75-100% remaining) |
| COc1ccc(-c2nc(-c3ccc4c(c3)CN(C3CCC(=O)NC3=O)C4=O)cn2C)cc1 (stereo not drawn) [Example 557] | C (C = 0-10% remaining) | < 0.025 µM | ≥ 0.025 µM | F (F = >75-100% remaining) |
| Cc1cc(-c2nc(-c3ccc4c(c3)CN(C3CCC(=O)NC3=O)C4=O)cn2C)ccc1N (stereo not drawn) [Example 558] | C (C = 0-10% remaining) | < 0.025 µM | ≥ 0.025 µM | F (F = >75-100% remaining) |
| Cn1cc(-c2ccc3c(c2)CN(C2CCC(=O)NC2=O)C3=O)nc1-c1ccoc1 (stereo not drawn) [Example 559] | C (C = 0-10% remaining) | < 0.025 µM | < 0.025 µM | F (F = >75-100% remaining) |
| Cc1cc(F)ccc1-c1nc(-c2ccc3c(c2)CN(C2CCC(=O)NC2=O)C3=O)cn1C (stereo not drawn) [Example 560] | C (C = 0-10% remaining) | < 0.025 µM | < 0.025 µM | F (F = >75-100% remaining) |
| Cc1ccc(F)c(-c2nc(-c3ccc4c(c3)CN(C3CCC(=O)NC3=O)C4=O)cn2C)c1 (stereo not drawn) [Example 561] | C (C = 0-10% remaining) | < 0.025 µM | < 0.025 µM | F (F = >75-100% remaining) |
| Cc1cc(Cl)ccc1-c1nc(-c2ccc3c(c2)CN(C2CCC(=O)NC2=O)C3=O)cn1C (stereo not drawn) [Example 562] | C (C = 0-10% remaining) | < 0.025 µM | < 0.025 µM | F (F = >75-100% remaining) |
| Cc1cc(-c2nc(-c3ccc4c(c3)CN(C3CCC(=O)NC3=O)C4=O)cn2C)ccc1F (stereo not drawn) [Example 563] | C (C = 0-10% remaining) | < 0.025 µM | ≥ 0.025 µM | F (F = >75-100% remaining) |
| Cc1ccc(-c2nc(-c3ccc4c(c3)CN(C3CCC(=O)NC3=O)C4=O)cn2C)cc1Cl (stereo not drawn) [Example 564] | C (C = 0-10% remaining) | < 0.025 µM | < 0.025 µM | F (F = >75-100% remaining) |
| COc1ccc(-c2nc(-c3ccc4c(c3)CN(C3CCC(=O)NC3=O)C4=O)cn2C)cc1C (stereo not drawn) [Example 565] | C (C = 0-10% remaining) | < 0.025 µM | ≥ 0.025 µM | F (F = >75-100% remaining) |
| Cc1ccc(-c2nc(-c3ccc4c(c3)CN(C3CCC(=O)NC3=O)C4=O)cn2C)cc1C (stereo not drawn) [Example 566] | C (C = 0-10% remaining) | < 0.025 µM | ≥ 0.025 µM | E (E = >25-75% remaining) |
| Cc1ccc(-c2nc(-c3ccc4c(c3)CN(C3CCC(=O)NC3=O)C4=O)cn2C)cc1 (stereo not drawn) [Example 568] | C (C = 0-10% remaining) | < 0.025 µM | < 0.025 µM | F (F = >75-100% remaining) |
| Cn1cc(-c2ccc3c(c2)CN(C2CCC(=O)NC2=O)C3=O)nc1-c1ccc(OC(F)F)cc1 (stereo not drawn) [Example 569] | C (C = 0-10% remaining) | < 0.025 µM | < 0.025 µM | F (F = >75-100% remaining) |
| Cc1cccc(-c2nc(-c3ccc4c(c3)CN(C3CCC(=O)NC3=O)C4=O)cn2C)c1 (stereo not drawn) [Example 570] | C (C = 0-10% remaining) | < 0.025 µM | ≥ 0.025 µM | E (E = >25-75% remaining) |
| Cc1ccccc1-c1nc(-c2ccc3c(c2)CN(C2CCC(=O)NC2=O)C3=O)cn1C (stereo not drawn) [Example 571] | C (C = 0-10% remaining) | < 0.025 µM | < 0.025 µM | F (F = >75-100% remaining) |
| Cn1cc(-c2ccc3c(c2)CN(C2CCC(=O)NC2=O)C3=O)nc1-c1ccc(C#N)nc1 (stereo not drawn) [Example 572] | D (D = >10- 25% remaining) | < 0.025 µM | < 0.025 µM | F (F = >75-100% remaining) |
| Cc1c(N)cccc1-c1nc(-c2ccc3c(c2)CN(C2CCC(=O)NC2=O)C3=O)cn1C (stereo not drawn) [Example 573] | C (C = 0-10% remaining) | < 0.025 µM | < 0.025 µM | E (E = >25-75% remaining) |
| Cc1cc(-c2nc(-c3ccc4c(c3)CN(C3CCC(=O)NC3=O)C4=O)cn2C)ccc1Cl (stereo not drawn) [Example 574] | C (C = 0-10% remaining) | < 0.025 µM | ≥ 0.025 µM | E (E = >25-75% remaining) |
| CCCCCCc1ccc(-c2nc(-c3ccc4c(c3)CN(C3CCC(=O)NC3=O)C4=O)cn2C)cc1 (stereo not drawn) [Example 575] | D (D = >10- 25% remaining) | < 0.025 µM | ≥ 0.025 µM | F (F = >75-100% remaining) |
| Cc1cc(C)cc(-c2nc(-c3ccc4c(c3)CN(C3CCC(=O)NC3=O)C4=O)cn2C)c1 (stereo not drawn) [Example 576] | C (C = 0-10% remaining) | < 0.025 µM | < 0.025 µM | F (F = >75-100% remaining) |
| CCCCc1ccc(-c2nc(-c3ccc4c(c3)CN(C3CCC(=O)NC3=O)C4=O)cn2C)cc1 (stereo not drawn) [Example 577] | C (C = 0-10% remaining) | < 0.025 µM | < 0.025 µM | E (E = >25-75% remaining) |
| COc1cccc(-c2nc(-c3ccc4c(c3)CN(C3CCC(=O)NC3=O)C4=O)cn2C)c1 (stereo not drawn) [Example 578] | C (C = 0-10% remaining) | < 0.025 µM | < 0.025 µM | E (E = >25-75% remaining) |
